Data as given in ChEMBL document CHEMBL1155851, “Synthesis of some novel imidazole-based dicationic carbazolophanes as potential antibacterials” (2008).
Values after ≈ are worked out from the molar mass of the structure shown. Active and inactive are the calls of the source. The calls are words filed in the database; no cut-off is given here.

Columns and labels:
Proteus vulgaris = experiment: Antimicrobial activity against Proteus vulgaris; assay type: functional
Proteus mirabilis = experiment: Antimicrobial activity against Proteus mirabilis; assay type: functional
Pseudomonas aeruginosa = experiment: Antimicrobial activity against Pseudomonas aeruginosa; assay type: functional
Salmonella typhi = experiment: Antimicrobial activity against Salmonella typhi; assay type: functional, Salmonella enterica subsp. enterica serovar Typhi; conditions: Salmonella enterica
Staphylococcus aureus [1] = experiment: Antimicrobial activity against Staphylococcus aureus; assay type: functional
Staphylococcus aureus [2] = tested on: Staphylococcus aureus

SMILES	MIC (Proteus vulgaris)	MIC (Proteus mirabilis)	MIC (Pseudomonas aeruginosa)	MIC (Salmonella typhi)	MIC (Staphylococcus aureus [1])	MIC (Staphylococcus aureus [2])
CCn1c2ccc3cc2c2cc(ccc21)C(=O)c1ccc(cc1)Cn1c[n+](c2ccccc21)Cc1ccc(cc1)-c1cccc(c1)-c1ccc(cc1)C[n+]1cn(c2ccccc21)Cc1ccc(cc1)C3=O.[Br-].[Br-]	50 µg/mL	50 µg/mL	65 µg/mL	45 µg/mL	45 µg/mL	–
CCn1c2ccc3cc2c2cc(ccc21)C(=O)c1ccc(cc1)Cn1c[n+](c2ccccc21)Cc1cc([N+](=O)[O-])cc(c1O)C[n+]1cn(c2ccccc21)Cc1ccc(cc1)C3=O.[Br-].[Br-]	35 µg/mL	30 µg/mL	30 µg/mL	15 µg/mL	20 µg/mL	–
CCn1c2ccc3cc2c2cc(ccc21)C(=O)c1ccc(cc1)Cn1c[n+](c2ccccc21)Cc1cccc(n1)C[n+]1cn(c2ccccc21)Cc1ccc(cc1)C3=O.[Br-].[Br-]	15 µg/mL	10 µg/mL	20 µg/mL	15 µg/mL	8 µg/mL	–
CCn1c2ccc3cc2c2cc(ccc21)C(=O)c1ccc(cc1)Cn1cc[n+](c1)Cc1ccc(cc1)C(=O)c1ccc2c(c1)c1cc(ccc1n2CC)C(=O)c1ccc(cc1)C[n+]1ccn(c1)Cc1ccc(cc1)C3=O.[Br-].[Br-]	40 µg/mL	35 µg/mL	55 µg/mL	25 µg/mL	25 µg/mL	–
CCn1c2ccc3cc2c2cc(ccc21)C(=O)c1ccc(cc1)Cn1cc[n+](c1)Cc1cc([N+](=O)[O-])cc(c1O)C[n+]1ccn(c1)Cc1ccc(cc1)C3=O.[Br-].[Br-]	30 µg/mL	20 µg/mL	35 µg/mL	20 µg/mL	20 µg/mL	–
CN(C)[C@@H]1C(O)=C(C(N)=O)C(=O)[C@@]2(O)C(O)=C3C(=O)c4c(O)cccc4[C@@](C)(O)[C@H]3C[C@@H]12 [TETRACYCLINE]	35 µg/mL (≈ 78.8 µM)	20 µg/mL (≈ 45 µM)	35 µg/mL (≈ 78.8 µM)	15 µg/mL (≈ 33.8 µM)	20 µg/mL (≈ 45 µM)	–
CCn1c2ccc3cc2c2cc(ccc21)C(=O)c1ccc(cc1)Cn1c[n+](c2ccccc21)Cc1ccc(cc1)C(=O)c1ccc2c(c1)c1cc(ccc1n2CC)C(=O)c1ccc(cc1)C[n+]1cn(c2ccccc21)Cc1ccc(cc1)C3=O.[Br-].[Br-]	30 µg/mL	30 µg/mL	35 µg/mL	25 µg/mL	26 µg/mL	–
CCn1c2ccc3cc2c2cc(ccc21)C(=O)c1ccc(cc1)Cn1cc[n+](c1)Cc1ccc(cc1)-c1cccc(c1C(=O)O)-c1ccc(cc1)C[n+]1ccn(c1)Cc1ccc(cc1)C3=O.[Br-].[Br-]	65 µg/mL	50 µg/mL	80 µg/mL	35 µg/mL	35 µg/mL	–
CCn1c2ccc3cc2c2cc(ccc21)C(=O)c1ccc(cc1)Cn1c[n+](c2ccccc21)Cc1ccc(cc1)-c1cccc(c1C(=O)O)-c1ccc(cc1)C[n+]1cn(c2ccccc21)Cc1ccc(cc1)C3=O.[Br-].[Br-]	60 µg/mL	55 µg/mL	70 µg/mL	50 µg/mL	–	inactive
CCn1c2ccc3cc2c2cc(ccc21)C(=O)c1ccc(cc1)Cn1cc[n+](c1)Cc1cccc(n1)C[n+]1ccn(c1)Cc1ccc(cc1)C3=O.[Br-].[Br-]	25 µg/mL	20 µg/mL	30 µg/mL	15 µg/mL	12 µg/mL	–
CCn1c2ccc3cc2c2cc(ccc21)C(=O)c1ccc(cc1)Cn1cc[n+](c1)Cc1ccc(cc1)-c1cccc(c1)-c1ccc(cc1)C[n+]1ccn(c1)Cc1ccc(cc1)C3=O.[Br-].[Br-]	70 µg/mL	75 µg/mL	75 µg/mL	55 µg/mL	75 µg/mL	–
CCn1c2ccc3cc2c2cc(ccc21)C(=O)c1ccc(cc1)Cn1c[n+](c2ccccc21)Cc1cc(OC)c(cc1OC)C[n+]1cn(c2ccccc21)Cc1ccc(cc1)C3=O.[Br-].[Br-]	45 µg/mL	55 µg/mL	70 µg/mL	40 µg/mL	–	–
